In ChEMBL document CHEMBL1201862, “PubChem BioAssay data set” (2004):
Blank lines part the entries; values can stand above or below the compound they belong to. Activity calls are given as the source filed them.

What was measured:
[1] = target: Peroxisome proliferator-activated receptor gamma/Nuclear receptor coactivator 1 (Homo sapiens, UniProt P37231); test: (§1) TR-FRET dose response biochemical High Throughput Screening assay for agonists of the steroid receptor coactivator 1 (SRC-1) recruitment by the peroxisome proliferator-activated receptor gamma (PPAR gamma): non-selective agonists. [Related pubchem assays (depositor defined):AID1300, AID1808, AID504735, AID631]; assay type: protein assay
[2] = target: Peroxisome proliferator-activated receptor gamma/Nuclear receptor coactivator 3 (Homo sapiens, UniProt P37231); test: as §1, with “3 (SRC-3)” for “1 (SRC-1)”, “assays: 1301 (Confirmation screen.), 1048 (Primary screen.)]” for “assays (depositor defined):AID1300, AID1808, AID504735, AID631]”; assay type: functional
[3] = test system: H9c2; test: cells; assay type: functional, cell-based; conditions: Rattus norvegicus, H9c2, Myocardium;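 also: confirmatory concentration-response retest of ultra-high-throughput screening hits for modulation of myocardial damage; cell death induced by hydrogen peroxide oxidative stress; compound pretreatment for 60 min then peroxide exposure for 2 h; potency is for protecting the cells against peroxide damage rather than for killing them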
[4] = target: Peroxisome proliferator-activated receptor gamma/Nuclear receptor coactivator 2 (Homo sapiens, UniProt P37231); test: TR-FRET dose response biochemical High Throughput Screening assay for agonists of the steroid receptor coactivator 2 (SRC-2) recruitment by the peroxisome proliferator-activated receptor gamma (PPAR gamma): non-selective agonists. [Related pubchem assays: 1297, 1032 ]; assay type: functional
[5] = target: T1, Intestinal-type alkaline phosphatase (Mus musculus, UniProt P24822); test: mouse intestinal alkaline phosphatase activators, dose response, biochemical, luminescence, uHTS hits (AID 488783); assay type: functional
[6] = target: T2, Intestinal-type alkaline phosphatase (Homo sapiens, UniProt P09923); test: activation of human intestinal alkaline phosphatase – biochemical, dose response (AID 488873); assay type: functional
[7] = target: T3, Alkaline phosphatase, tissue-nonspecific isozyme (Homo sapiens, UniProt P05186); test: activation of tissue-nonspecific alkaline phosphatase – biochemical, TNAP isozyme, mouse IAP uHTS hits, selectivity assay for mouse IAP activator project, dose response (AID 488880); assay type: functional
T3 sequence (P05186 whole entry): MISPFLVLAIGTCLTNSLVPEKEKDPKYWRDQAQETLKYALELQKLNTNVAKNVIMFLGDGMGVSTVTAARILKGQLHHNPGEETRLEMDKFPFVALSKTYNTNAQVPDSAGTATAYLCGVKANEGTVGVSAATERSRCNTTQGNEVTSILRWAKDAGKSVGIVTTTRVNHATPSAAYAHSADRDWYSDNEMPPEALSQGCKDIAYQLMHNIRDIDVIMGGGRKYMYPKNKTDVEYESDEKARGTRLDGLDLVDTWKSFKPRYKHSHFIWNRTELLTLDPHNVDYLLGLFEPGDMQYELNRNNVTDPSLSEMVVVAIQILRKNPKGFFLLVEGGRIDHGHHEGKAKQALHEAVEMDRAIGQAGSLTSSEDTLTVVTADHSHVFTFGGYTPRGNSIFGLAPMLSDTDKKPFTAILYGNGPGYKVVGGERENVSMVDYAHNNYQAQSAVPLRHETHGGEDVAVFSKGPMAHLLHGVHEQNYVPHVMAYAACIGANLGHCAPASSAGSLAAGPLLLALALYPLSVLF

[8] = target: T4, Zinc finger protein mex-5 (Caenorhabditis elegans, UniProt Q9XUB2); test: potency of MEX-5 RNA-binding blockers – biochemical, C. elegans, fluorescence polarization, dose response (AID 1960)
T4 sequence (Q9XUB2 whole entry): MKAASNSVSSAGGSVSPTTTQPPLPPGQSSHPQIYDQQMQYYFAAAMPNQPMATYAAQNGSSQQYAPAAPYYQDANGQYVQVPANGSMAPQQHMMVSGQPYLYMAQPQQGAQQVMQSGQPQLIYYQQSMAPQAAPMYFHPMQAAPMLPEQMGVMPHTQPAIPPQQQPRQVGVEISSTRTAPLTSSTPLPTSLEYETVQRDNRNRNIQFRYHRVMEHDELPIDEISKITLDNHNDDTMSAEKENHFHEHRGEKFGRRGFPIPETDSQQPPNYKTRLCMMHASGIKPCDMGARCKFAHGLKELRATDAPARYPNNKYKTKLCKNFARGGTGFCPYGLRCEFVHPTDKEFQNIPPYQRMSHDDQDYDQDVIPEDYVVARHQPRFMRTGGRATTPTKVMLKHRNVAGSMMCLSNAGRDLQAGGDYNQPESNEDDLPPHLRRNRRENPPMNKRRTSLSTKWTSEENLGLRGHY

[9] = target: T3, Alkaline phosphatase, tissue-nonspecific isozyme; test: potency against alkaline phosphatase TNAP – biochemical, luminescent, dose response, SAR follow-up (AID 1056)
[10] = target: T5, RNA-binding protein pos-1 (Caenorhabditis elegans, UniProt G5EF15); test: disruptors of C. elegans POS-1 RNA interaction – biochemical, fluorescence polarization, dose response (AID 1964);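 also: purified POS-1 fused to maltose binding protein made in E. coli; potency of compounds blocking POS-1 binding to fluorescent RNA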
T5 sequence (G5EF15 whole entry): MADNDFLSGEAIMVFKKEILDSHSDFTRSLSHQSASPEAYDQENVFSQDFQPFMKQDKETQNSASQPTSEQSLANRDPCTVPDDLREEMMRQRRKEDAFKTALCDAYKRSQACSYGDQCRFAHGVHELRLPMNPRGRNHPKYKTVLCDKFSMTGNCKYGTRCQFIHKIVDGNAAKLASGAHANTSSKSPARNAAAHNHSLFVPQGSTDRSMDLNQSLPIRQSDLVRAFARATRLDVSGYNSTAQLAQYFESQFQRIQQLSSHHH

[11] = target: Voltage-dependent T-type calcium channel subunit alpha-1H (Homo sapiens, UniProt O95180); test: inhibition of CACNA1H calcium flux – cell-based, SynthLib3 library, HEK293 Cav3.2, fluorescence (AID 493041); assay type: functional
[12] = target: Nucleotide-binding oligomerization domain-containing protein 2 (Homo sapiens, UniProt Q9HC29); test: inhibition of MDP-driven NOD2 NF-kB reporter – cell-based, set 3, SAR follow-up (AID 2799); assay type: functional
[13] = target: Tumor necrosis factor (Homo sapiens, UniProt P01375); test: analog potency on TNFa NF-kB signaling – cell-based, set 3, SAR follow-up (AID 2801); assay type: functional
[14] = target: T6, Nucleotide-binding oligomerization domain-containing protein 1 (Homo sapiens, UniProt Q9Y239); test: SAR analysis of compounds that inhibit NOD1 - Set 3. [Related pubchem assays (depositor defined):AID1566, AID1575, AID1578, AID1849, AID1852, AID2333, AID2335, AID2466]; assay type: functional
T6 sequence (Q9Y239 whole entry): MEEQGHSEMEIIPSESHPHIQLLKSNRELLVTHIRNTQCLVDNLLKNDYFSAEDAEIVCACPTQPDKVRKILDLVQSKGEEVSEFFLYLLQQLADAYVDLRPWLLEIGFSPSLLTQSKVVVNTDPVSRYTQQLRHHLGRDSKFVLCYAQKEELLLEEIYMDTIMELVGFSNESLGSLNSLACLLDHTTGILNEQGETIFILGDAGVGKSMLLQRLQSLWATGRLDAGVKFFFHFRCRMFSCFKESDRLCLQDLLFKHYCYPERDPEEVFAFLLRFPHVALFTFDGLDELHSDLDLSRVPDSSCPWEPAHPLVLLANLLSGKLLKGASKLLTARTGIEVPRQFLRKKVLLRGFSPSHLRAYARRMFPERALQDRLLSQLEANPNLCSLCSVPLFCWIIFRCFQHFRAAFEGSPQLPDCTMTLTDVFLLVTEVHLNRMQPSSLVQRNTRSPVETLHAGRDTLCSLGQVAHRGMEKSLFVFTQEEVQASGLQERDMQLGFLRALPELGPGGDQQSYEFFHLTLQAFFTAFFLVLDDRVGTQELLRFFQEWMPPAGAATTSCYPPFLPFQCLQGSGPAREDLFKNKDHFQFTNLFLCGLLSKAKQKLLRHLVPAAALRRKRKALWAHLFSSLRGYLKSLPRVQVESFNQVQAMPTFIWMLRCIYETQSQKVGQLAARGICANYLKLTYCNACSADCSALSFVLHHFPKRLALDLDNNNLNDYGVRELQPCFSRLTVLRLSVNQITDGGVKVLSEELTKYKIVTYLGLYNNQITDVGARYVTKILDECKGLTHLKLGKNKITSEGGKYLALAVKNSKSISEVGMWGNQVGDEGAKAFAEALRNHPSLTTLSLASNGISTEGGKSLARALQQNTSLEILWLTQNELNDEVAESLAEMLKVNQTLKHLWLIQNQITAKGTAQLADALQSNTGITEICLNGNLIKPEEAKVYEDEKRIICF

[15] = test system: HEK293; test: SAR analysis of compounds that are cytotoxic to HEK293 - Set 3. [Related pubchem assays (depositor defined):AID1575, AID1578, AID1848, AID1849, AID2001, AID2333, AID2334, AID2335, AID2337, AID2469]; assay type: functional, cell-based; conditions: Homo sapiens
[16] = target: T3, Alkaline phosphatase, tissue-nonspecific isozyme; test: activation of tissue-nonspecific alkaline phosphatase – biochemical, TNAP isozyme, human IAP uHTS hits, selectivity assay for human IAP activator project, dose response (AID 488886); assay type: functional;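 also: potency of compounds raising TNAP activity as a selectivity check on IAP activators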
[17] = target: T2, Intestinal-type alkaline phosphatase; test: human intestinal alkaline phosphatase activators, dose response, biochemical, luminescence, uHTS hits (AID 463120); assay type: functional
[18] = target: T7, Nuclear receptor subfamily 0 group B member 1 (Homo sapiens, UniProt P51843); assay type: functional, cell-based;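 also: HEK293T cells transfected with SF-1 and DAX-1 plus StAR promoter luciferase reporter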
T7 sequence (P51843 whole entry): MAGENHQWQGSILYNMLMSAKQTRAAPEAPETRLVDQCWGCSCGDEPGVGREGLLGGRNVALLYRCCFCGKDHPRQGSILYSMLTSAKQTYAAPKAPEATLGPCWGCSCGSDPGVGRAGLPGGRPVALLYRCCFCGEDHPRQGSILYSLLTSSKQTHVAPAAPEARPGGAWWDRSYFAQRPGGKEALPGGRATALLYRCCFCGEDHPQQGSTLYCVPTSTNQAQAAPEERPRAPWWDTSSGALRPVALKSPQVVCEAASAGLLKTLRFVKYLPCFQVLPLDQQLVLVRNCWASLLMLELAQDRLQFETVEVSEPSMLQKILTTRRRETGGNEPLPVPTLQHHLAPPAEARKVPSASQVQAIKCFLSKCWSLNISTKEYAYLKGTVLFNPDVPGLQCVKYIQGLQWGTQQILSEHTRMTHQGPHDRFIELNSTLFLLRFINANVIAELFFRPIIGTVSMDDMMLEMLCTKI

[19] = cells; assay type: functional, cell-based
[20] = target: T2, Intestinal-type alkaline phosphatase; test: activation of human intestinal alkaline phosphatase – biochemical, luminescent, uHTS hits, set 2, dose response (AID 488817); assay type: functional;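 also: potency of activators that raise enzyme activity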
[21] = target: T1, Intestinal-type alkaline phosphatase; test: PubChem AID 488875; assay type: functional

T2 sequence (P09923 whole entry): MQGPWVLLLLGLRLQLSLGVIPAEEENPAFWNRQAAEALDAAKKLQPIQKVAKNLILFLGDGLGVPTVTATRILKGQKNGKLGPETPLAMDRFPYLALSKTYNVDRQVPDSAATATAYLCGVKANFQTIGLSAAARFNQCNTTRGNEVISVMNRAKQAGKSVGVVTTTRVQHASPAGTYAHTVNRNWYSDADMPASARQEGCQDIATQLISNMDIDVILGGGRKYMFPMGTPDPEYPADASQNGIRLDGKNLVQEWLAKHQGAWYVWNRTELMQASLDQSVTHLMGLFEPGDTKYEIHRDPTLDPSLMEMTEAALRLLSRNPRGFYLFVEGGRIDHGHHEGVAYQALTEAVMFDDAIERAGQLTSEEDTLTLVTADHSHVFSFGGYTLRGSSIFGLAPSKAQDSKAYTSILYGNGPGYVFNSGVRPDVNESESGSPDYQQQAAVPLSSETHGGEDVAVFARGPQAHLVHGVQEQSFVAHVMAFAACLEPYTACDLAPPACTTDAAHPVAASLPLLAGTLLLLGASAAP
T1 sequence (P24822 whole entry): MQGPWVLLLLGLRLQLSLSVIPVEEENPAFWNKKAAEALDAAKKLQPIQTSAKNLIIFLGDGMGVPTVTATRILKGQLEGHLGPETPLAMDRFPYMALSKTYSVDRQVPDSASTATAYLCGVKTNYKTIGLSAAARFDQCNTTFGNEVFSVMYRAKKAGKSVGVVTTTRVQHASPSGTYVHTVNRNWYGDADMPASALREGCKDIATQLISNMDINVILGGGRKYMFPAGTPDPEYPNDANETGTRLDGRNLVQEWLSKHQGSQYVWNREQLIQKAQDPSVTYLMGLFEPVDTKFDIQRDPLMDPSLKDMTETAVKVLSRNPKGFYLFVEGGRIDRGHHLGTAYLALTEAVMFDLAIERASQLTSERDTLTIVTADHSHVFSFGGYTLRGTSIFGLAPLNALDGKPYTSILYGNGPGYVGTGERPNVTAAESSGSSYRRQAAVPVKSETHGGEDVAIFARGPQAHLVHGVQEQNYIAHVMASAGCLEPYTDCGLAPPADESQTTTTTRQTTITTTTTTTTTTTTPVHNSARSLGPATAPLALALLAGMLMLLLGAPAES
Voltage-dependent T-type calcium channel subunit alpha-1H, sequence (O95180 whole entry, the tested form may be a part): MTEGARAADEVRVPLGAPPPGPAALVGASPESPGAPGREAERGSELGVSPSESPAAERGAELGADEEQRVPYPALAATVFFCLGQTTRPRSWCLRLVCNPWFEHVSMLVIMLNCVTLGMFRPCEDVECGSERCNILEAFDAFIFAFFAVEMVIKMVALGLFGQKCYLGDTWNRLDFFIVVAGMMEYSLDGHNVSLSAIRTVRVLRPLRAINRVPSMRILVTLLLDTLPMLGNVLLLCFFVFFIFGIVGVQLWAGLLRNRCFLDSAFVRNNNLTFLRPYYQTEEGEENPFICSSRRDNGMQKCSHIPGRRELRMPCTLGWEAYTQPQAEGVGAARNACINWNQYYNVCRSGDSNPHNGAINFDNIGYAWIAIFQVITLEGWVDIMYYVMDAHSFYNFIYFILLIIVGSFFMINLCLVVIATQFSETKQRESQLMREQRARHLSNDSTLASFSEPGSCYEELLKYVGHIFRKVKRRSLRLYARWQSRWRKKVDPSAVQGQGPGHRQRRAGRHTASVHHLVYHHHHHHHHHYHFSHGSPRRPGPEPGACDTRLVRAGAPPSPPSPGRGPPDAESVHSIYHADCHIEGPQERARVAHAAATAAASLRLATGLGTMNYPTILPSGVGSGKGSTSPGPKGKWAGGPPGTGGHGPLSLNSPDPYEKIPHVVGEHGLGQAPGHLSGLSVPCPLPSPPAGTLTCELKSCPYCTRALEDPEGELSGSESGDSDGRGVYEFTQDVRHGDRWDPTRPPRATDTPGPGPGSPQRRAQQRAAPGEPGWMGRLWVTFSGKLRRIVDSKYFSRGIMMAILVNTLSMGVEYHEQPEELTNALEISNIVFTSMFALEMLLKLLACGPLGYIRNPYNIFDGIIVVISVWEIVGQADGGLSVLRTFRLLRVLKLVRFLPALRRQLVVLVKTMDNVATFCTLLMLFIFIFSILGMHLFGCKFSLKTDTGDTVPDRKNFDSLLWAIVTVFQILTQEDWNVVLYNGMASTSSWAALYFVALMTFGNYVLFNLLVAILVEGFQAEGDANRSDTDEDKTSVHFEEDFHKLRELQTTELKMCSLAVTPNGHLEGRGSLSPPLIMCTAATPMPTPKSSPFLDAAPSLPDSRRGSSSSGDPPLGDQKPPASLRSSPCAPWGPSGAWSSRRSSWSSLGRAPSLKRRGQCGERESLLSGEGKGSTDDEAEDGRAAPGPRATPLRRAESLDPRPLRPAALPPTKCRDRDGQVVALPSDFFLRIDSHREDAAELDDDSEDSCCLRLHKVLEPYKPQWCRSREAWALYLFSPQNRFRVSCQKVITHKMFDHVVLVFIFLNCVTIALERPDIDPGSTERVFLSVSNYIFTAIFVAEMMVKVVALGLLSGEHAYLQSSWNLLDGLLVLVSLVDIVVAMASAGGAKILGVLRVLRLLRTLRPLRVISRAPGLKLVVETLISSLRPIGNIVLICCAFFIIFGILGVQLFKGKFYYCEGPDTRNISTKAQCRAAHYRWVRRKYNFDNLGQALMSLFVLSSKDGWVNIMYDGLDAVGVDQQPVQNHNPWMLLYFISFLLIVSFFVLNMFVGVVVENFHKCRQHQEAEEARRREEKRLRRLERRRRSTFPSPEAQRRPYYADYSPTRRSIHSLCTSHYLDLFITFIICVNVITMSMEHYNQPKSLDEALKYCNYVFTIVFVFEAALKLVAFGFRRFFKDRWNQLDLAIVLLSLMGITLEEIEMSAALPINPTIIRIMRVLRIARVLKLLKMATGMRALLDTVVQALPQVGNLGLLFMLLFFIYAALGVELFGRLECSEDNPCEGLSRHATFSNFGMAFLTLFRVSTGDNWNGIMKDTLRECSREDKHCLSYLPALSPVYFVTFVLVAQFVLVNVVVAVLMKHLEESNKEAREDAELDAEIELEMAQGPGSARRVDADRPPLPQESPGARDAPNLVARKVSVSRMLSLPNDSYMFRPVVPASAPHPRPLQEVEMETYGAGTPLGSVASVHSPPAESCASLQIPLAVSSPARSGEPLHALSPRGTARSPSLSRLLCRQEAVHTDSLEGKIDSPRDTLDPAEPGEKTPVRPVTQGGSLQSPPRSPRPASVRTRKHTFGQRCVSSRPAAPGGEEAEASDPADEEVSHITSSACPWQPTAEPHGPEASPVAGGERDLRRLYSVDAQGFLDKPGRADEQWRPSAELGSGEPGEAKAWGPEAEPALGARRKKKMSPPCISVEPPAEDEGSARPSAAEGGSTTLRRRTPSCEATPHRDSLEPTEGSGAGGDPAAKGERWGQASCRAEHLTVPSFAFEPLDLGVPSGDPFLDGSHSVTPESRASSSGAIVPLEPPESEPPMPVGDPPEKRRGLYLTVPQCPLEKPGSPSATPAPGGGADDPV
Nucleotide-binding oligomerization domain-containing protein 2, sequence (Q9HC29 whole entry, the tested form may be a part): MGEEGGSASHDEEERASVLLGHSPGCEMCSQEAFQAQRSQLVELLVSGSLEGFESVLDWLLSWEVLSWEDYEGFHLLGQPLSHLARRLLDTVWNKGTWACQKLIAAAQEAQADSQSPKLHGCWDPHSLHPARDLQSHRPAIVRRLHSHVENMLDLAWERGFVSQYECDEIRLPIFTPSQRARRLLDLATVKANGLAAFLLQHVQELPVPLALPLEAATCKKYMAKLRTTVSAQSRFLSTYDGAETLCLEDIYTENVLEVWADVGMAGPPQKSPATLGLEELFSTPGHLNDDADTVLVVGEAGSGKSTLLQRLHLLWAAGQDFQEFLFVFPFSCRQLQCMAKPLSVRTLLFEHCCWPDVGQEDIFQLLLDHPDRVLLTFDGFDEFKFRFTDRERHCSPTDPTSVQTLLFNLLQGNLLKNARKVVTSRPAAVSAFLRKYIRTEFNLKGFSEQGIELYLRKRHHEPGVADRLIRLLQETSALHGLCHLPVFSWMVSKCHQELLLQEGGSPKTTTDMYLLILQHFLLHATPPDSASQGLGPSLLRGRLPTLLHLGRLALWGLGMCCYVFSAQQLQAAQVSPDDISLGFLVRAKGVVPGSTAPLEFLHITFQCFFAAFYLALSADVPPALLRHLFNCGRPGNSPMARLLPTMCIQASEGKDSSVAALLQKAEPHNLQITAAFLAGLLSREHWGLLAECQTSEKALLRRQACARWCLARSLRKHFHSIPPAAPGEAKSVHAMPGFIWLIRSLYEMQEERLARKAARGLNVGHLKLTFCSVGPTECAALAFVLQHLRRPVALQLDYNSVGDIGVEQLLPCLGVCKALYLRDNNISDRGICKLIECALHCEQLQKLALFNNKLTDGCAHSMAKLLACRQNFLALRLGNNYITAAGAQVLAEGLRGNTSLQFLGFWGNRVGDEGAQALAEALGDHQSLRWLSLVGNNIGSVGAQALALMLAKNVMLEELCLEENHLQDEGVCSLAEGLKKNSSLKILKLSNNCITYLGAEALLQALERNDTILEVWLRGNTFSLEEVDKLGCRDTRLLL
Tumor necrosis factor, sequence (P01375 whole entry, the tested form may be a part): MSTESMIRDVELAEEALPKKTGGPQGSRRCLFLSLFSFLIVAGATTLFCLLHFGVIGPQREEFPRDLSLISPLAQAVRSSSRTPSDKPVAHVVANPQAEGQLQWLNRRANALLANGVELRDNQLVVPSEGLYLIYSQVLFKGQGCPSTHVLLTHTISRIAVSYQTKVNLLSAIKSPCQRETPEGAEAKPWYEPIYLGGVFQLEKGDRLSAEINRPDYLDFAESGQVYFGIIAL

Structure (SMILES): O=C(Nc1cccnc1)c1sc(Nc2ccccc2)nc1-c1ccccc1
EC50 [1]: 2.72 µM (active)
EC50 [2]: 40 µM (not active)
IC50 [3]: > 79 µM (inactive)
EC50 [4]: 3.26 µM (active)

EC50 [5]: 66.9 µM (active)
EC50 [6]: 74.7 µM (active)
EC50 [7]: 62.1 µM (active)
EC50 [8]: 17.7 µM (inconclusive)
IC50 [9]: 13.1 µM (active)
EC50 [10]: 11.5 µM (active)
Structure (SMILES): COc1ccc(OC)c(S(=O)(=O)Nc2ccc(O)c(Sc3nc[nH]n3)c2)c1

EC50 [11]: 9.4 µM (active)
Structure (SMILES): CCC(C)CN1CC2CCC(NC(=O)c3cc(Cl)cc(Cl)c3)C2C1 (stereo unspecified)

Structure (SMILES): Nc1nc2ccccc2n1S(=O)(=O)c1ccc(OC(F)(F)F)cc1
IC50 [12]: > 20 µM (inactive)
IC50 [13]: > 20 µM (inactive)
IC50 [14]: 8.94 µM (active)
IC50 [15]: > 20 µM (inactive)

Structure (SMILES): CCc1ccc(/C=N/Nc2[nH]cnc3ncnc2-3)cc1
EC50 [16]: 17.7 µM (active)
EC50 [17]: 6.62 µM (active)
IC50 [18]: 2.09 µM (active)
IC50 [19]: > 67.5 µM (inactive)
EC50 [20]: 12.5 µM (active)
EC50 [21]: > 100 µM (inactive)
